Experimental data published in US11912693B2, “Compounds for modulating S1P1 activity and methods of using the same” (TREVENA, INC., priority 2017, dated 2024).

Experiments:
[1] = molecular target: T1, human sphingosine-1-phosphate receptor 1 (S1P1) (Homo sapiens (Human), UniProt P21453); experiment: Inhibition of cAMP production (HTRF cAMP HiRange), S1P1 CHO-K1 cells; format: cell-based; details: for Emax: CHO-K1, read-out: hS1P1 cAMP SPAN; for hS1P1 cAMP pEC50: inhibition of cAMP production, S1P1 CHO-K1 cells
Method in brief: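 CHO-K1 cells stably co-expressing human S1P1 (C-terminal Prolink tag) and EA-β-arrestin2 were grown in AssayComplete Media 6 at 37° C. and 5% CO2, plated, and incubated overnight. Agonist-driven inhibition of intracellular cAMP was read by TR-FRET with the HTRF cAMP HiRange kit on a PheraStar reader. Potency is pEC50, and efficacy (SPAN) is normalized to fingolimod.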
Target sequence in this assay (P21453 whole entry, looked up): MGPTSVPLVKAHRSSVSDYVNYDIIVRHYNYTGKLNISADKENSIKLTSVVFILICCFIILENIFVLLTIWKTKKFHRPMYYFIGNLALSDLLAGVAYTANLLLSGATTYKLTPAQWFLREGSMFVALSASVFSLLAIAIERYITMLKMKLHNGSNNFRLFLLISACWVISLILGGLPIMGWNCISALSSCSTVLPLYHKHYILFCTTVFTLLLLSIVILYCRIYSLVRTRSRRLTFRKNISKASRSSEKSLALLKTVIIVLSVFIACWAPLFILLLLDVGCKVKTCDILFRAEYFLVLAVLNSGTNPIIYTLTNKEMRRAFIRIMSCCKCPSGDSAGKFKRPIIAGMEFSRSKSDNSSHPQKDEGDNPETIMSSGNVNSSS

[2] = molecular target: T1, human sphingosine-1-phosphate receptor 1 (S1P1); experiment: β-Arrestin2 recruitment assay (PathHunter), S1P1 CHO-K1 cells; format: cell-based; details: for Emax: CHO-K1, read-out: hS1P1 B-arrestin2 SPAN; for hS1P1 B-arrestin2 pEC50: β-arrestin2 recruitment, S1P1 CHO-K1 cells
Method in brief: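 Enzyme-fragment complementation read-out: agonist-driven β-arrestin2 binding to ProLink-tagged human S1P1 in stable CHO-K1 cells restores β-galactosidase, measured 1 h at room temperature after a 60 min 37° C. compound incubation. Potency as pEC50, efficacy relative to fingolimod (SPAN).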
Target sequence in this assay (P21453 whole entry, looked up): as above
Target sequence in this assay (P32121 whole entry partner, looked up): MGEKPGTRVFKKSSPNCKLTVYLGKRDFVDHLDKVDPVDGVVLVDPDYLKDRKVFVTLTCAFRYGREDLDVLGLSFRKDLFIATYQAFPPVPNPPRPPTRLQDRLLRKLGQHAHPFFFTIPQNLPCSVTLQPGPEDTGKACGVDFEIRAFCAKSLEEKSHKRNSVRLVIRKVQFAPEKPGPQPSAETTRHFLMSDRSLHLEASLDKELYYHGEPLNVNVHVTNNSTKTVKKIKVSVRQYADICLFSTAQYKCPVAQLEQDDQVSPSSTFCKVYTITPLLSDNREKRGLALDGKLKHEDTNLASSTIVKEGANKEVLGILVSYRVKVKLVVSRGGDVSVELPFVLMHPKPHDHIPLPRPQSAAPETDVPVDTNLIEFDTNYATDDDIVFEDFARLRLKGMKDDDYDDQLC

[3] = efficacy (SPAN) normalized to fingolimod

Compound | Emax [1, 3] [%] | hS1P1 cAMP pEC50 [1] | Emax [2, 3] [%] | hS1P1 B-arrestin2 pEC50 [2] | hS1P1 cAMP SPAN [1, 3] | hS1P1 B-arrestin2 SPAN [2, 3]
O=C1CC2(CCOCC2)Oc2ccc(-c3nc(-c4cccnc4)no3)cc21 [Compound 214, 6-[3-(pyridin-3-yl)-1,2,4-oxadiazol-5-yl]-3,4-dihydrospiro[1-benzopyran-2,4′-oxane]-4-one] | < 75 | <6.5 | < 75 | <5 |  | 
FC(F)(F)Oc1cccc(-c2nc(-c3ccc4c(c3)nnn4C3CCCC3)no2)c1 [Compound 10, 3-(1-cyclopentyl-1H-benzo[d][1,2,3]triazol-5-yl)-5-(3-(trifluoromethoxy)phenyl)-1,2,4-oxadiazole] |  | <6.5 |  | <5 | <75 | <75
C=CCNc1ccc(-c2ccc(-c3ccc4c(c3)nnn4C(C)C)cc2)cc1C#N [Compound 508, 4-(allylamino)-4′-(1-isopropyl-1H-benzo[d][1,2,3]triazol-5-yl)-[1,1′-biphenyl]-3-carbonitrile] | > 75 | <6.5 | < 75 | <5 |  | 
CCC1(CC)CC(=O)c2cc(-c3nc(-c4ccncc4C(F)(F)F)no3)ccc2O1 [Compound 313, 2,2-diethyl-6-(3-(3-(trifluoromethyl)pyridin-4-yl)-1,2,4-oxadiazol-5-yl)chroman-4-one] | > 75 | >6.5 | > 75 | <5 |  | 
Cc1cncc(-c2nc(-c3ccc4c(c3)nnn4C(C)C)no2)c1 [Compound 159, 3-(1-isopropyl-1H-benzo[d][1,2,3]triazol-5-yl)-5-(5-methylpyridin-3-yl)-1,2,4-oxadiazole] |  | <6.5 |  | <5 |  | 
Cc1cc(-c2noc(-c3ccc4c(c3)nnn4C3CCCC3)n2)ccn1 [Compound 77] | < 75 |  | < 75 |  |  | 
CC(C)n1nnc2cc(-c3noc(C4CCC(F)(F)CC4)n3)ccc21 [Compound 125, 5-[5-(4,4-difluorocyclohexyl)-1,2,4-oxadiazol-3-yl]-1-(propan-2-yl)-1H-1,2,3-benzotriazole] | < 75 | <6.5 | < 75 | <5 |  | 
Cc1ccc2oc(-c3ccc4c(c3)nnn4CC(C)C)nc2c1 [Compound 437, 2-(1-isobutyl-1H-benzo[d][1,2,3]triazol-5-yl)-5-methylbenzo[d]oxazole] | > 75 | >6.5 | < 75 | >5 |  | 
COc1cccc(OC)c1-c1noc(-c2ccc3c(c2)nnn3C(C)C)n1 [Compound 251, 3-(2,6-dimethoxyphenyl)-5-(1-isopropylbenzotriazol-5-yl)-1,2,4-oxadiazole] | < 75 | <6.5 | < 75 | <5 |  | 
COc1ccccc1-c1noc(-c2ccc3[nH]ccc3c2)n1 [Compound 368, 5-(1H-indol-5-yl)-3-(2-methoxyphenyl)-1,2,4-oxadiazole] |  | <6.5 |  | <5 |  | 
CCC1(CC)CC(=O)c2cc(-c3nc(-c4ccc(S(=O)(=O)NC)cc4)no3)ccc2O1 [Compound 266, 4-(5-(2,2-diethyl-4-oxochroman-6-yl)-1,2,4-oxadiazol-3-yl)-N-methylbenzenesulfonamide] |  | <6.5 |  | >5 |  | 
